Values quoted from earlier work as cited in patent US20100124560A1, “MULTI PORTION INTRA-ORAL DOSAGE FORM AND USE THEREOF” (McNEIL AB, priority 2008, published 2010).
Read-outs that look alike come from different tables or passages of the source.

How the values were obtained:
[1] = pKa value lying in interval 8-9.6

| SMILES | Solubility in water (in water) | other results |
| --- | --- | --- |
| NCCCC[C@H](N)C(=O)O [Lysine] | – | Solubility in water, g/kg: Very soluble^a)b) |
| N[C@@H](Cc1c[nH]cn1)C(=O)O [Histidine] | 43.5 g/kg | – |
| N[C@@H](CO)C(=O)O [Serine] | – | pKa value (in interval 8-9.6) [1]: 9.05 |
| N[C@@H](CS(=O)(=O)O)C(=O)O [Cysteic acid] | – | Solubility in water, g/kg (in water): Very soluble |
| NC(=O)C[C@H](N)C(=O)O [Aspargine] | – | pKa value (in interval 8-9.6) [1]: 8.73 |
| CSCC[C@H](N)C(=O)O [Methionine] | 56 g/kg | – |
| CC(C)C[C@H](N)C(=O)O [Leucine] | 22.0 g/kg | – |
| CC(C)[C@H](N)C(=O)O [Valine] | 88.5 g/kg | – |

The next lines start with results.

| Solubility in water (in water) | SMILES | other results |
| --- | --- | --- |
| 42 g/kg | NC(=O)CC[C@H](N)C(=O)O [Glutamine] | – |
| 34.2 g/kg | CC[C@H](C)[C@H](N)C(=O)O [Isoleucine] | – |
| 27.9 g/kg | N[C@@H](Cc1ccccc1)C(=O)O [Phenylalanine] | – |
